Measurements reported in ChEMBL document CHEMBL1201862, “PubChem BioAssay data set” (2004).
Calls of active or inactive are those of the source.

Tests used:
Coagulation factor XII = target: T1, Coagulation factor XII (Homo sapiens, UniProt P00748); test: FXIIa inhibitor potency, concentration-response, biochemical (AID 716); assay type: functional
T1 sequence (P00748 whole entry): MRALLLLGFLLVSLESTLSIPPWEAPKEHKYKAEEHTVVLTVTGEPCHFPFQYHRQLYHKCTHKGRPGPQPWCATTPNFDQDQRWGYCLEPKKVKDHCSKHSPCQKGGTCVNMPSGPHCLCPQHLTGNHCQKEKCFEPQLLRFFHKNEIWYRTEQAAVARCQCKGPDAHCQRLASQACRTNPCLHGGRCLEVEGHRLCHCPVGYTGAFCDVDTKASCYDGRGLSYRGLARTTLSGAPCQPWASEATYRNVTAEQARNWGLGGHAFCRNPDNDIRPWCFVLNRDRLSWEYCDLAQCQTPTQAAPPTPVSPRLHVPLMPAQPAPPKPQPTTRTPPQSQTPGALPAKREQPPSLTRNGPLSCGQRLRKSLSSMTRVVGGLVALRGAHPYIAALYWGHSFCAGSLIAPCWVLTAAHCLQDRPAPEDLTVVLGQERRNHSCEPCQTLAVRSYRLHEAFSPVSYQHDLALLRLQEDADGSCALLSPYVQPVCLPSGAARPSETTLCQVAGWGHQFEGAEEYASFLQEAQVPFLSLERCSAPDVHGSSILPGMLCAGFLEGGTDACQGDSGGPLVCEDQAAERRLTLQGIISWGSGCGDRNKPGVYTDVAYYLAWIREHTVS

Beta Lactamase [1] = target: T2, Beta Lactamase (Pseudomonas aeruginosa, UniProt Q932Y6); test: beta-lactamase reporter inhibitor potency, dose response, artefact control for TLR9-MyD88 binding inhibitor project, BLA reporter cells, FRET fluorescence (AID 588341); assay type: cell-based;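 note: cell based assay in CHO-K1 cells stably expressing beta-lactamase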
T2 sequence (Q932Y6 whole entry): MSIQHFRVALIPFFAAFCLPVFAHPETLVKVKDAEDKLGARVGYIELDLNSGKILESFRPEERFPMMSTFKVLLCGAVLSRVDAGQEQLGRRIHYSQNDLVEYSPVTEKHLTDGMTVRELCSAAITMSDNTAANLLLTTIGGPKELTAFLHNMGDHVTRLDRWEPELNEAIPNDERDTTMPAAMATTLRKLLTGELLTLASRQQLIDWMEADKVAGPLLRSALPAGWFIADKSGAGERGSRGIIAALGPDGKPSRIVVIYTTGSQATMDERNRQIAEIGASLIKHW

[2] = target: T3, Rac GTPase-activating protein 1 (Homo sapiens, UniProt Q9H0H5); test: MgcRacGAP GTPase-activating activity inhibitors, confirmation, biochemical, ADP Hunter fluorescence, primary and confirmatory (AID 624330); assay type: functional
T3 sequence (Q9H0H5 whole entry): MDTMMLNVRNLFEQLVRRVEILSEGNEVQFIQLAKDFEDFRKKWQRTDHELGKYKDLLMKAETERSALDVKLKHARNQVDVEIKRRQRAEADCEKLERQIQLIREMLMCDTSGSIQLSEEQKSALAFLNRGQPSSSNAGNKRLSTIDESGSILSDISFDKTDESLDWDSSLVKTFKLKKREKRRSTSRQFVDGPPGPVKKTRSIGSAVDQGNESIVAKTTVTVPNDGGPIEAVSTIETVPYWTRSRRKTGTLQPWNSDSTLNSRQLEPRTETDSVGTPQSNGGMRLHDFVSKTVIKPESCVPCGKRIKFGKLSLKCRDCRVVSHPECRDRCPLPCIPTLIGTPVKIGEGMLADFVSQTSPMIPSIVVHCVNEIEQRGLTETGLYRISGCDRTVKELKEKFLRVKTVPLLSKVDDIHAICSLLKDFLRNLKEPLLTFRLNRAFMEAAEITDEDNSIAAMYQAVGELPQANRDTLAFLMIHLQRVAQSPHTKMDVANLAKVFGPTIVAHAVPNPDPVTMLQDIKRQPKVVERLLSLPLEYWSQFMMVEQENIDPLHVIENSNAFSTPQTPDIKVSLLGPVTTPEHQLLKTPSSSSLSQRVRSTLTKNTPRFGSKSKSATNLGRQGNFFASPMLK

[3] = HeLa cell cytotoxicity, dose response, cytotoxicity control for MgcRacGAP inhibitor project (AID 624300); assay type: functional
[4] = target: Mitochondrial peptide methionine sulfoxide reductase (Bos taurus, UniProt P54149); test: Absorbance-based biochemical high throughput dose response assay for activators of Methionine sulfoxide reductase A (MsrA).; assay type: functional
Chain of Mitochondrial peptide methionine sulfoxide reductase (P54149 whole entry, the tested form may be a part): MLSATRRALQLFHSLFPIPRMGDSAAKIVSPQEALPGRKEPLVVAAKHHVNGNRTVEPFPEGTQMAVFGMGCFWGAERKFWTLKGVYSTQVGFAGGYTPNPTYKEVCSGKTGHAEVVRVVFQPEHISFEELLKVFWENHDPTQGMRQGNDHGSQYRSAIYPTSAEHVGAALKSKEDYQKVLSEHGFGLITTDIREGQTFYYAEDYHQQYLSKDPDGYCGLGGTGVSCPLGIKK

CHO = test: cytotoxicity in TLR9-MyD88 CHO cells, dose response, cytotoxicity control for TLR9-MyD88 binding inhibitor project, cell-based, luminescence (AID 588339); assay type: functional, hamster; conditions: Cricetulus griseus;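 note: CHO cells stably coexpressing TLR9 and MyD88 fusions from primary screen; compound exposure lasted 48 hours before viability readout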
Phosphomannomutase 2 = target: T4, Phosphomannomutase 2 (Homo sapiens, UniProt O15305); test: Counter screen SAR assay for PMM2 inhibitors via a fluorescence intensity assay. [Related pubchem assays (depositor defined):AID1545, AID1574]
T4 sequence (O15305 whole entry): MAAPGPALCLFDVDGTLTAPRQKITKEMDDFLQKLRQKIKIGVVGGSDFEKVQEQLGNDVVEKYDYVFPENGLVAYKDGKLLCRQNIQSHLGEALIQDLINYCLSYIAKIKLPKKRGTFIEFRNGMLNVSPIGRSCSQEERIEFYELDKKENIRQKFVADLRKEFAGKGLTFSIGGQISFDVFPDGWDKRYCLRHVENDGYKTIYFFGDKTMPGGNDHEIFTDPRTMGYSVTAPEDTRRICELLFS

Hexokinase = target: T5, Hexokinase (Trypanosoma brucei, UniProt Q38C41); test: Confirmation assay for inhibitors of Trypanosoma brucei hexokinase 1-Analogue-first series. [Related pubchem assays (depositor defined):AID1430, AID1632, AID2516, AID2560, AID2579, AID2600, AID449725, AID492951]; assay type: functional
T5 sequence (Q38C41 whole entry): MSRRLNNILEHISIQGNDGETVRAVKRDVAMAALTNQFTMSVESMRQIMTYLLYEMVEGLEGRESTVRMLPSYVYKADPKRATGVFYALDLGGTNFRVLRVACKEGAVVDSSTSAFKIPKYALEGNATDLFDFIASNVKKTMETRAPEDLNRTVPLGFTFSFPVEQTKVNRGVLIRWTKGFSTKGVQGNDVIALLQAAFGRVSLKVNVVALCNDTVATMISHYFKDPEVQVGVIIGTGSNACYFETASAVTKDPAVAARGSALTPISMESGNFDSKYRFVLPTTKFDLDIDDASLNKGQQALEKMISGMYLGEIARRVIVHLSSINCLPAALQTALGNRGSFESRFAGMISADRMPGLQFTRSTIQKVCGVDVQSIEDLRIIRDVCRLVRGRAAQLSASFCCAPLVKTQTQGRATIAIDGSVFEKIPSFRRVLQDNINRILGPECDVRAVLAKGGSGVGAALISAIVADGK

[5] = target: T6, Alkaline phosphatase, tissue-nonspecific isozyme (Homo sapiens, UniProt P05186); test: human TNAP enzyme inhibitors, SAR follow-up, biochemical, luminescent, dose response (AID 1056)
T6 sequence (P05186 whole entry): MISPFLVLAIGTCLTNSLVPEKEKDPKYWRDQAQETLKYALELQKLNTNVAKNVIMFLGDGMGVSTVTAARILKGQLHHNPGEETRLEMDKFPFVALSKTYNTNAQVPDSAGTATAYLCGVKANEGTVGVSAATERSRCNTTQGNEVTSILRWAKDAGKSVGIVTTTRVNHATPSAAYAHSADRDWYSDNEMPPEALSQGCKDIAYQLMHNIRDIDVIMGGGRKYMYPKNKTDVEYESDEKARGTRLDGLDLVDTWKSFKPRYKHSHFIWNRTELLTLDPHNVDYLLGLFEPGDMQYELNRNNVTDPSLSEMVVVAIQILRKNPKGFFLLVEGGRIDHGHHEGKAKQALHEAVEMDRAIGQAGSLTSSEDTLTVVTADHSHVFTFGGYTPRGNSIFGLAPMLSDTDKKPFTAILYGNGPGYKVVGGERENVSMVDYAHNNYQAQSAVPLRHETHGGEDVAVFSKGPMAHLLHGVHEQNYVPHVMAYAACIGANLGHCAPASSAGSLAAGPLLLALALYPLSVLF

[6] = target: DNA dC->dU-editing enzyme APOBEC-3A (Homo sapiens, UniProt P31941); test: APOBEC3A DNA deaminase inhibitors, dose response, biochemical (AID 504722); assay type: functional
Chain of DNA dC->dU-editing enzyme APOBEC-3A (P31941 whole entry): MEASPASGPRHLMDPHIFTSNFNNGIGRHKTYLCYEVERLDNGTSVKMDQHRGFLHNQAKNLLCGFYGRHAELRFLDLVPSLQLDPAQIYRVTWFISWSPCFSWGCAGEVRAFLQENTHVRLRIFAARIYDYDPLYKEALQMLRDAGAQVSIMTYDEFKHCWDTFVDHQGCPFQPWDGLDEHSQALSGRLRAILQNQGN

[7] = target: DNA dC->dU-editing enzyme APOBEC-3G (Homo sapiens, UniProt Q9HC16); test: Dose Response confirmation of small molecule APOBEC3G DNA Deaminase Inhibitors via a fluorescence-based single-stranded DNA deaminase assay. [Related pubchem assays (depositor defined):AID493012, AID493028]; assay type: functional
Chain of DNA dC->dU-editing enzyme APOBEC-3G (Q9HC16 whole entry, the tested form may be a part): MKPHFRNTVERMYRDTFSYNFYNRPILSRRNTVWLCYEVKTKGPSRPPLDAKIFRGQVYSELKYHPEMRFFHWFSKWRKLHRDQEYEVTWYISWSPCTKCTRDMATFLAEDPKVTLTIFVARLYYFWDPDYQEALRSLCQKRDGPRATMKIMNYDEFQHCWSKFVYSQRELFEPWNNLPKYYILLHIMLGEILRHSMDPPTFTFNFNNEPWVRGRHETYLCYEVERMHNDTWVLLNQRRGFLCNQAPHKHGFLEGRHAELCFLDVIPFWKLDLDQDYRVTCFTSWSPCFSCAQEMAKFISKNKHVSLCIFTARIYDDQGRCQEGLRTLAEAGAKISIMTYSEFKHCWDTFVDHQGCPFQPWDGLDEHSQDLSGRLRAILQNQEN

[8] = Fluorescence-based cell-based high throughput dose response assay for inhibitors of the interaction of nucleotide-binding oligomerization domain containing 2 (NOD2) and the receptor-interacting serine-threonine kinase 2 (RIPK2).; assay type: functional; conditions: Homo sapiens
[9] = target: Phosphoethanolamine/phosphocholine phosphatase (Homo sapiens, UniProt Q8TCT1); test: SAR assay for compounds that inhibit PHOSPHO1. [Related pubchem assays (depositor defined):AID1545, AID1565, AID1574]
Chain of Phosphoethanolamine/phosphocholine phosphatase (Q8TCT1 whole entry): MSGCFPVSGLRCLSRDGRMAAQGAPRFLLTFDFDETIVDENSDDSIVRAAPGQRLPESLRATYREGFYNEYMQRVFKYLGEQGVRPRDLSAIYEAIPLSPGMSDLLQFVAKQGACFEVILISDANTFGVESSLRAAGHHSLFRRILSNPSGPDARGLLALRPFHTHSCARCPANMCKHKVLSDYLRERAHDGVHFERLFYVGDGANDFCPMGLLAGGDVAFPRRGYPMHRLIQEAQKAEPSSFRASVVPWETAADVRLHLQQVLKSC

Beta Lactamase [10] = target: T2, Beta Lactamase; test: beta-lactamase reporter inhibitor potency, dose response, artefact control for NOD2-RIPK2 interaction inhibitor project, BLA reporter cells, FRET fluorescence (AID 651552); assay type: functional, cell-based
[11] = inhibitors of SNCA 5'UTR-driven reporter translation, confirmation, H4 neuroglioma cells, luminescence (AID 1988); assay type: functional, cell-based
[12] = Luminescence Cell-Based Dose Response HTS to Identify Inhibitors of 5'UTR Stem-Loop Driven Prion Protein mRNA Translation in H4 Neuroglioblastoma Cells. [Related pubchem assays: 1827 (Project Summary), 1813 (Primary HTS)]; assay type: functional
[13] = growth suppression of PTEN-null colon cells, dose response, cell-based, HCT116 PTEN knockout (AID 1047); assay type: functional;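 note: HCT116 colon tumor cells with PTEN knocked out; cells exposed to compound for 60 hours before readout; potency for loss of cell viability measured by luminescence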
[14] = target: G-protein coupled receptor 55 (Homo sapiens, UniProt Q9Y2T6); test: GPR55 antagonists blocking LPI-driven arrestin recruitment, primary screen, imaging, U2OS, beta-arrestin-GFP, LPI agonist (AID 2013); assay type: functional;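 note: antagonist potency measured as reduced agonist-driven arrestin aggregation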
Chain of G-protein coupled receptor 55 (Q9Y2T6 whole entry): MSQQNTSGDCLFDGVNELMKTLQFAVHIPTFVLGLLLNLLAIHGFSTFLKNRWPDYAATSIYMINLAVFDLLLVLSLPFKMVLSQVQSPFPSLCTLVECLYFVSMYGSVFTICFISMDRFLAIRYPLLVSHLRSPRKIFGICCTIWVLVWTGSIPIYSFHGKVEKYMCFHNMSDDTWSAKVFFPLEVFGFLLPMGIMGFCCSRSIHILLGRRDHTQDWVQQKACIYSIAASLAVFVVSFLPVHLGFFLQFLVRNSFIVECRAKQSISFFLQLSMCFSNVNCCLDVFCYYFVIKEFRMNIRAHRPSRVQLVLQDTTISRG

[15] = inhibitors of firefly luciferase expression or activity, dose response, H4 neuroglioma cells, luminescence (AID 1990); assay type: functional, cell-based
[16] = growth suppression of beta-catenin-knockout colon cells, dose response, cell-based, HCT116, human colon tumor (AID 1045); assay type: functional;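 note: HCT116 colon tumor cells with beta catenin knocked out; cells exposed to compound for 60 hours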
[17] = target: Dual specificity protein phosphatase 6 (Rattus norvegicus, UniProt Q64346); assay type: functional;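 note: confirmatory in vitro dose-response testing of MKP-3 inhibition; recombinant His-tagged MKP-3 made in E. coli BL21 with OMFP substrate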
Chain of Dual specificity protein phosphatase 6 (Q64346 whole entry): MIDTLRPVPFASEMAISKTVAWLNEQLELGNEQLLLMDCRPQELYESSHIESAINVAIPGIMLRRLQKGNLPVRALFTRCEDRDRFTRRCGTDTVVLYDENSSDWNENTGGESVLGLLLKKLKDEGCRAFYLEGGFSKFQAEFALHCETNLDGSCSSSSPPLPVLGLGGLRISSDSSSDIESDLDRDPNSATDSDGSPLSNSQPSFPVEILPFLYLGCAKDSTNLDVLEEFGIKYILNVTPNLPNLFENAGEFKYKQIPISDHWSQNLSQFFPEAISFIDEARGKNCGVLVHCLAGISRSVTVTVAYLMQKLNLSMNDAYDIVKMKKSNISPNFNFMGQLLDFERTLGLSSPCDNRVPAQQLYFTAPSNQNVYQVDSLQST

[18] = target: T7, Dual specificity protein phosphatase 3 (Homo sapiens, UniProt P51452); test: SAR VHR1 Fluorescent Assay for In Vitro dose response studies Set 2. [Related pubchem assays (depositor defined):AID1654, AID1661, AID1878]; assay type: functional
T7 sequence (P51452 whole entry): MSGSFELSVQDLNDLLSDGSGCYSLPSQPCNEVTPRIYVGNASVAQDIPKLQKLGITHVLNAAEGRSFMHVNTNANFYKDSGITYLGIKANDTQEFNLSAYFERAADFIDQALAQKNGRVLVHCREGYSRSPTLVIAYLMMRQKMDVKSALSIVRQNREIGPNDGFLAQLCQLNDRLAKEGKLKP

[19] = target: T7, Dual specificity protein phosphatase 3; test: SAR VHR1 Fluorescent Assay for In Vitro dose response studies. [Related pubchem assays (depositor defined):AID1654, AID1661, AID1878, AID1992, AID2004, AID2070, AID2085]; assay type: functional
[20] = target: T7, Dual specificity protein phosphatase 3; test: SAR VHR1 absorbance Assay for In Vitro dose response studies. [Related pubchem assays (depositor defined):AID1654, AID1661, AID1878, AID1992, AID2004]
[21] = target: T8, Tyrosine-protein phosphatase non-receptor type 7 (Homo sapiens, UniProt P35236); test: redox-dependent HePTP inhibition, mechanism study, biochemical, fluorescence (AID 2068); assay type: functional
T8 sequence (P35236 whole entry): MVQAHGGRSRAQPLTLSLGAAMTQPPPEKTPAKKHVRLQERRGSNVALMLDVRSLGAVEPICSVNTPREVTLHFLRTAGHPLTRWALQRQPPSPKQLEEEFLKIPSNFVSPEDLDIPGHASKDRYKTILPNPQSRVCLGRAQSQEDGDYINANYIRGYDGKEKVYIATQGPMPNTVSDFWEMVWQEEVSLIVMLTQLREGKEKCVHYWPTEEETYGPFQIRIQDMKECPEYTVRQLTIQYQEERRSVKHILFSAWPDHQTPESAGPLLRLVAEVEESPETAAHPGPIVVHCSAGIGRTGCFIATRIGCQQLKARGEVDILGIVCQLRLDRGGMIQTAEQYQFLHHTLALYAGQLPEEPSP

Vero [22] = test: cytotoxicity of synthesized analogs in Vero cells, SAR follow-up, cytotoxicity control for West Nile virus antiviral project, cell-based, set II (AID 2402); assay type: functional; conditions: Chlorocebus sabaeus
Vero [23] = test: Vero E6 cell cytotoxicity, SAR follow-up, cytotoxicity control for West Nile virus antiviral project, synthesized analogs (AID 2244); assay type: functional; conditions: Chlorocebus sabaeus
Vero [24] = test: cytotoxicity of synthesized analogs in Vero 76, SAR follow-up, cytotoxicity control for West Nile virus antiviral project, Vero 76 cells (AID 2414); assay type: functional; conditions: Chlorocebus sabaeus
Vero [25] = test: West Nile virus antiviral activity, cell-based, CPE readout (AID 1621); assay type: functional; conditions: Chlorocebus sabaeus
Vero [26] = test: West Nile virus CPE inhibition, SAR follow-up, cell-based, synthesized analogs (AID 2238); assay type: functional; conditions: Chlorocebus sabaeus
Vero [27] = test: West Nile virus cytopathic effect inhibition, cell-based (AID 2419); assay type: functional; conditions: Chlorocebus sabaeus

CC(C)CC(c1nnnn1Cc1ccco1)N1CCN(C2CCCC2)CC1 (stereo unspecified)
IC50 (Coagulation factor XII): > 50 µM (inactive)

O=c1c2cc(F)ccc2sn1-c1ccccc1
IC50 (Beta Lactamase [1]): 23 µM (inactive) | IC50 [2]: 35.5 µM (active) | CC50 [3]: 100 µM (active) | EC50 [4]: > 104 µM (inactive) | IC50 (CHO): 5.8 µM (active) | IC50 (Phosphomannomutase 2): 88.3 µM (active) | IC50 (Hexokinase): 1.03 µM (active) | IC50 [5]: > 100 µM (inactive) | IC50 [6]: > 100 µM (inactive) | IC50 [7]: 8.82 µM (active) | IC50 [8]: 4.59 µM (active) | IC50 [9]: 0.792 µM (active) | IC50 (Beta Lactamase [10]): 23.7 µM (inactive)

CCCCNS(=O)(=O)c1ccc(NC(=O)C(Sc2ccccc2)c2ccccc2)cc1 (stereo unspecified)
EC50 [11]: 13.9 µM (active) | EC50 [12]: > 120 µM (not active) | EC50 [13]: 14 µM (active) | IC50 [14]: 1.12 µM (active) | EC50 [15]: > 120 µM (not active) | EC50 [16]: 12.2 µM (active)

CN(C)S(=O)(=O)c1cc(C(=O)NC2CCSc3ccccc32)ccc1Cl (stereo unspecified)
IC50 [17]: > 100 µM (inactive) | IC50 [18]: > 100 µM (inactive) | IC50 [19]: > 100 µM (inactive) | IC50 [20]: > 100 µM (inactive) | IC50 [21]: > 100 µM (inactive)

O=C(CSc1nc2ccccc2c(=O)n1-c1ccc(F)cc1F)Nc1ccc2c(c1)CCC2
CC50 (Vero [22]): > 200 µM (active) | CC50 (Vero [23]): > 80 µM (active) | CC50 (Vero [24]): > 16.7 µM (active) | IC50 (Vero [25]): 11.8 µM (active) | IC50 (Vero [26]): 45 µM (active) | IC50 (Vero [27]): 173 µM (active)
